Measurements taken from patent US20120214847A1, “2-[1-PHENYL-5-HYDROXY-4a-SUBSTITUTED-HEXAHYDROCYCLOPENTA[F]INDAZOL-5-YL]ETHYL PHENYL DERIVATIVES AS GLUCOCORTICOID RECEPTOR LIGANDS” (Merck Sharp & Dohme Corp., priority 2009, published 2012).

Biological target: T1, human GR (Homo sapiens, UniProt P04150)
T1 construct: naturally expresses the human GR; endogenous in cells
T1 sequence (P04150 1-777): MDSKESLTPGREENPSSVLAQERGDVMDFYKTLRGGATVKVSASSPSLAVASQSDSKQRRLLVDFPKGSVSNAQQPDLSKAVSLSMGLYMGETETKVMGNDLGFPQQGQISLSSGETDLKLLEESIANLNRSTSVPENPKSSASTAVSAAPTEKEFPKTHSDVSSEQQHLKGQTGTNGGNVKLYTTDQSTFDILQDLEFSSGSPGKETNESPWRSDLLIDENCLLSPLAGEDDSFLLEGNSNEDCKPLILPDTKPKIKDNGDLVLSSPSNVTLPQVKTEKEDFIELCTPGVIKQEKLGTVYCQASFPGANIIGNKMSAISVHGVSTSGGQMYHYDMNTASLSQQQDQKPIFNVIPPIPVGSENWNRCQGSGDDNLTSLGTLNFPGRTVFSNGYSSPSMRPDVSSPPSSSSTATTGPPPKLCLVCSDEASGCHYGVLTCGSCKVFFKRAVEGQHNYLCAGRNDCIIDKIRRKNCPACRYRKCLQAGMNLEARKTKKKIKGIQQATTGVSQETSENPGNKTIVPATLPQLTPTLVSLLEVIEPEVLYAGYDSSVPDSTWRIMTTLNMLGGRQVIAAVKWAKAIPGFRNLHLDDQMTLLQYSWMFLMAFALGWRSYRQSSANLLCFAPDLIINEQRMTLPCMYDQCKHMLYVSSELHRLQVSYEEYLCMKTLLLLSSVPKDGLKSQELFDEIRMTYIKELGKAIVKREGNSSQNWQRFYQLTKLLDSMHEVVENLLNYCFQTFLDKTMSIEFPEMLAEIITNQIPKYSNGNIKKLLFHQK
Assay: Transrepression assay (GITAR), TNFα-β-lactamase reporter in U937 cells
Assay type: cell-based
Details: for EC50: IP = inflection point; for Emax: U-937, U937 cells
Method in brief: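 U937 cells stably carrying TNFα promoter–β-lactamase, endogenous GR, preincubated with compound 30–45 min at 37° C., then stimulated with 5 ng/ml PMA plus 100 ng/ml LPS for ~18 h. CCF2-AM read-out; repression by 100 nM dexamethasone set as 100%.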

[1] = activity repressed by 100 nM dexamethasone alone set as 100%

Structure (SMILES)	EC50 (U937 cells)	Emax [1]	Transrepression U937 Cells GITAR Emax (%) (U937 cells, activity repressed by 100 nM dexamethasone alone set as 100%)
CCS(=O)(=O)c1ccccc1CC[C@]1(O)CCC2=Cc3c(cnn3-c3ccc(F)cc3)C[C@@]21C1CC1 [Example 59, (4aR,5R)-4a-Cyclopropyl-5-{2-[2-(ethylsulfonyl)phenyl]ethyl}-1-(4-fluorophenyl)-1,4,4a,5,6,7-hexahydrocyclopenta[f]indazol-5-ol]	74 nM	88%	–
CC[C@]12Cc3cnn(-c4ccc(F)cc4)c3C=C1CC[C@@]2(O)CCc1cccc(F)c1CC(N)=O [Example 60, 2-(2-{2-[(4aS,5R)-4a-Ethyl-1-(4-fluorophenyl)-5-hydroxy-1,4,4a,5,6,7-hexahydrocyclopenta[f]indazol-5-yl]ethyl}-6-fluorophenyl)acetamide]	24 nM	84%	–
NC(=O)Cc1c(F)cccc1CC[C@]1(O)CCC2=Cc3c(cnn3-c3ccc(F)cc3)C[C@@]21C1CC1 [Example 61, 2-(2-{2-[(4aR,5R)-4a-Cyclopropyl-1-(4-fluorophenyl)-5-hydroxy-1,4,4a,5,6,7-hexahydrocyclopenta[f]indazol-5-yl]ethyl}-6-fluorophenyl)acetamide]	16 nM	72%	–
CC[C@]12Cc3cnn(-c4ccc(F)cc4)c3C=C1CC[C@@]2(O)CCc1ncccc1S(=O)(=O)C(C)C [Example 62, (4aS,5R)-4a-Ethyl-1-(4-fluorophenyl)-5-{2-[3-(propan-2-ylsulfonyl)pyridin-2-yl]ethyl}-1,4,4a,5,6,7-hexahydrocyclopenta[f]indazol-5-ol]	12 nM	85%	–
O=S(=O)(c1ccccc1CC[C@]1(O)CCC2=Cc3c(cnn3-c3ccc(F)cc3)C[C@@]21C1CC1)C1CC1 [Example 63, (4aR,5R)-4a-Cyclopropyl-5-{2-[2-(cyclopropylsulfonyl)phenyl]ethyl}-1-(4-fluorophenyl)-1,4,4a,5,6,7-hexahydrocyclopenta[f]indazol-5-ol]	127 nM	75%	–
CC[C@]12Cc3cnn(-c4ccc(F)cc4)c3C=C1CC[C@@]2(O)CCc1nccc(OC)c1CC(N)=O [Example 64, 2-(2-{2-[(4aS,5R)-4a-Ethyl-1-(4-fluorophenyl)-5-hydroxy-1,4,4a,5,6,7-hexahydrocyclopenta[f]indazol-5-yl]ethyl}-4-methoxypyridin-3-yl)acetamide]	72 nM	77%	–
CC[C@]12Cc3cnn(-c4ccc(F)cc4)c3C=C1CC[C@@]2(O)CCc1nccc(OC)c1C(F)C(N)=O (stereo partly drawn) [Example 65, 2-(2-{2-[(4aS,5R)-4a-Ethyl-1-(4-fluorophenyl)-5-hydroxy-1,4,4a,5,6,7-hexahydrocyclopenta[f]indazol-5-yl]ethyl}-4-methoxypyridin-3-yl)-2-fluoroacetamide]	195 nM	63%	–
COc1ccnc(CC[C@]2(O)CCC3=Cc4c(cnn4-c4ccc(F)cc4)C[C@@]32C2CC2)c1C(F)C(N)=O (stereo partly drawn) [Example 66, 2-(2-{2-[(4aR,5R)-4a-Cyclopropyl-1-(4-fluorophenyl)-5-hydroxy-1,4,4a,5,6,7-hexahydrocyclopenta[f]indazol-5-yl]ethyl}-4-methoxypyridin-3-yl)-2-fluoroacetamide]	12 nM	76%	–
CC[C@]12Cc3cnn(-c4ccc(F)cc4)c3C=C1CC[C@@]2(O)CC(O)c1ccccn1 (stereo partly drawn) [Example 68, (4aS,5R)-4a-Ethyl-1-(4-fluorophenyl)-5-[2-hydroxy-2-(pyridin-2-yl)ethyl]-1,4,4a,5,6,7-hexahydrocyclopenta[f]indazol-5-ol]	18 nM	71%	–
CC[C@]12Cc3cnn(-c4ccc(F)cc4)c3C=C1CC[C@@]2(O)CC(O)c1ncccc1Cl (stereo partly drawn) [Example 70, (4aS,5R)-5-[2-(3-Chloropyridin-2-yl)-2-hydroxyethyl]-4a-ethyl-1-(4-fluorophenyl)-1,4,4a,5,6,7-hexahydrocyclopenta[f]indazol-5-ol]	142 nM	79%	–
CC[C@]12Cc3cnn(-c4ccc(F)cc4)c3C=C1CC[C@@]2(O)CC1OC(=O)c2ccccc21 (stereo partly drawn) [Example 71, 3-{[(4aS,5R)-4a-Ethyl-1-(4-fluorophenyl)-5-hydroxy-1,4,4a,5,6,7-hexahydrocyclopenta[f]indazol-5-yl]methyl}-2-benzofuran-1(3H)-one]	65 nM	74%	–
CC[C@]12Cc3cnn(-c4ccc(F)cc4)c3C=C1CC[C@@]2(O)CC(O)c1cc(C#N)ccn1 (stereo partly drawn) [Example 72, 2-{2-[(4aS,5R)-4a-Ethyl-1-(4-fluorophenyl)-5-hydroxy-1,4,4a,5,6,7-hexahydrocyclopenta[f]indazol-5-yl]-1-hydroxyethyl}pyridine-4-carbonitrile]	228 nM	51%	–
CC[C@]12Cc3cnn(-c4ccc(F)cc4)c3C=C1CC[C@@]2(O)CC(O)c1cncc(F)c1 (stereo partly drawn) [Example 73, (4aS,5R)-4a-Ethyl-1-(4-fluorophenyl)-5-[2-(5-fluoropyridin-3-yl)-2-hydroxyethyl]-1,4,4a,5,6,7-hexahydrocyclopenta[f]indazol-5-ol]	198 nM	71%	–
CC[C@]12Cc3cnn(-c4ccc(F)cc4)c3C=C1CC[C@@]2(O)CC(O)c1c(F)ccnc1Cl (stereo partly drawn) [Example 74, (4aS,5R)-5-[2-(2-Chloro-4-fluoropyridin-3-yl)-2-hydroxyethyl]-4a-ethyl-1-(4-fluorophenyl)-1,4,4a,5,6,7-hexahydrocyclopenta[f]indazol-5-ol]	103 nM	72%	–
CC[C@]12Cc3cnn(-c4ccccc4)c3C=C1CC[C@@]2(O)CC(O)c1cc(C#N)ccn1 (stereo partly drawn) [Example 75, 2-{2-[(4aS,5R)-4a-Ethyl-5-hydroxy-1-phenyl-1,4,4a,5,6,7-hexahydrocyclopenta[f]indazol-5-yl]-1-hydroxyethyl}pyridine-4-carbonitrile]	235 nM	67%	–
CC[C@]12Cc3cnn(-c4ccc(F)cc4)c3C=C1CC[C@@]2(O)CC(O)c1ncccc1F (stereo partly drawn) [Example 76, (4aS,5R)-4a-Ethyl-1-(4-fluorophenyl)-5-[2-(3-fluoropyridin-2-yl)-2-hydroxyethyl]-1,4,4a,5,6,7-hexahydrocyclopenta[f]indazol-5-ol]	275 nM	64%	–
CC[C@]12Cc3cnn(-c4ccc(F)cc4)c3C=C1CC[C@@]2(O)CC(O)c1ncccc1F (stereo partly drawn) [Example 77, (4aS,5R)-4a-Ethyl-1-(4-fluorophenyl)-5-[2-(3-fluoropyridin-2-yl)-2-hydroxyethyl]-1,4,4a,5,6,7-hexahydrocyclopenta[f]indazol-5-ol]	162 nM	–	60%
OC(C[C@]1(O)CCC2=Cc3c(cnn3-c3ccc(F)cc3)C[C@@]21C1CC1)c1ccccn1 (stereo partly drawn) [Example 78, (4aR,5R)-4a-Cyclopropyl-1-(4-fluorophenyl)-5-[2-hydroxy-2-(pyridin-2-yl)ethyl]-1,4,4a,5,6,7-hexahydrocyclopenta[f]indazol-5-ol]	213 nM	49%	–
